{
  "source": "patent US10246426B2",
  "about": "“Triazole compounds as T-type calcium channel blockers” (IDORSIA PHARMACEUTICALS LTD, priority 2014, dated 2019)",
  "molecular_target": "Cav3.2 (Homo sapiens, UniProt O95180)",
  "sequence (O95180 whole entry, looked up)": "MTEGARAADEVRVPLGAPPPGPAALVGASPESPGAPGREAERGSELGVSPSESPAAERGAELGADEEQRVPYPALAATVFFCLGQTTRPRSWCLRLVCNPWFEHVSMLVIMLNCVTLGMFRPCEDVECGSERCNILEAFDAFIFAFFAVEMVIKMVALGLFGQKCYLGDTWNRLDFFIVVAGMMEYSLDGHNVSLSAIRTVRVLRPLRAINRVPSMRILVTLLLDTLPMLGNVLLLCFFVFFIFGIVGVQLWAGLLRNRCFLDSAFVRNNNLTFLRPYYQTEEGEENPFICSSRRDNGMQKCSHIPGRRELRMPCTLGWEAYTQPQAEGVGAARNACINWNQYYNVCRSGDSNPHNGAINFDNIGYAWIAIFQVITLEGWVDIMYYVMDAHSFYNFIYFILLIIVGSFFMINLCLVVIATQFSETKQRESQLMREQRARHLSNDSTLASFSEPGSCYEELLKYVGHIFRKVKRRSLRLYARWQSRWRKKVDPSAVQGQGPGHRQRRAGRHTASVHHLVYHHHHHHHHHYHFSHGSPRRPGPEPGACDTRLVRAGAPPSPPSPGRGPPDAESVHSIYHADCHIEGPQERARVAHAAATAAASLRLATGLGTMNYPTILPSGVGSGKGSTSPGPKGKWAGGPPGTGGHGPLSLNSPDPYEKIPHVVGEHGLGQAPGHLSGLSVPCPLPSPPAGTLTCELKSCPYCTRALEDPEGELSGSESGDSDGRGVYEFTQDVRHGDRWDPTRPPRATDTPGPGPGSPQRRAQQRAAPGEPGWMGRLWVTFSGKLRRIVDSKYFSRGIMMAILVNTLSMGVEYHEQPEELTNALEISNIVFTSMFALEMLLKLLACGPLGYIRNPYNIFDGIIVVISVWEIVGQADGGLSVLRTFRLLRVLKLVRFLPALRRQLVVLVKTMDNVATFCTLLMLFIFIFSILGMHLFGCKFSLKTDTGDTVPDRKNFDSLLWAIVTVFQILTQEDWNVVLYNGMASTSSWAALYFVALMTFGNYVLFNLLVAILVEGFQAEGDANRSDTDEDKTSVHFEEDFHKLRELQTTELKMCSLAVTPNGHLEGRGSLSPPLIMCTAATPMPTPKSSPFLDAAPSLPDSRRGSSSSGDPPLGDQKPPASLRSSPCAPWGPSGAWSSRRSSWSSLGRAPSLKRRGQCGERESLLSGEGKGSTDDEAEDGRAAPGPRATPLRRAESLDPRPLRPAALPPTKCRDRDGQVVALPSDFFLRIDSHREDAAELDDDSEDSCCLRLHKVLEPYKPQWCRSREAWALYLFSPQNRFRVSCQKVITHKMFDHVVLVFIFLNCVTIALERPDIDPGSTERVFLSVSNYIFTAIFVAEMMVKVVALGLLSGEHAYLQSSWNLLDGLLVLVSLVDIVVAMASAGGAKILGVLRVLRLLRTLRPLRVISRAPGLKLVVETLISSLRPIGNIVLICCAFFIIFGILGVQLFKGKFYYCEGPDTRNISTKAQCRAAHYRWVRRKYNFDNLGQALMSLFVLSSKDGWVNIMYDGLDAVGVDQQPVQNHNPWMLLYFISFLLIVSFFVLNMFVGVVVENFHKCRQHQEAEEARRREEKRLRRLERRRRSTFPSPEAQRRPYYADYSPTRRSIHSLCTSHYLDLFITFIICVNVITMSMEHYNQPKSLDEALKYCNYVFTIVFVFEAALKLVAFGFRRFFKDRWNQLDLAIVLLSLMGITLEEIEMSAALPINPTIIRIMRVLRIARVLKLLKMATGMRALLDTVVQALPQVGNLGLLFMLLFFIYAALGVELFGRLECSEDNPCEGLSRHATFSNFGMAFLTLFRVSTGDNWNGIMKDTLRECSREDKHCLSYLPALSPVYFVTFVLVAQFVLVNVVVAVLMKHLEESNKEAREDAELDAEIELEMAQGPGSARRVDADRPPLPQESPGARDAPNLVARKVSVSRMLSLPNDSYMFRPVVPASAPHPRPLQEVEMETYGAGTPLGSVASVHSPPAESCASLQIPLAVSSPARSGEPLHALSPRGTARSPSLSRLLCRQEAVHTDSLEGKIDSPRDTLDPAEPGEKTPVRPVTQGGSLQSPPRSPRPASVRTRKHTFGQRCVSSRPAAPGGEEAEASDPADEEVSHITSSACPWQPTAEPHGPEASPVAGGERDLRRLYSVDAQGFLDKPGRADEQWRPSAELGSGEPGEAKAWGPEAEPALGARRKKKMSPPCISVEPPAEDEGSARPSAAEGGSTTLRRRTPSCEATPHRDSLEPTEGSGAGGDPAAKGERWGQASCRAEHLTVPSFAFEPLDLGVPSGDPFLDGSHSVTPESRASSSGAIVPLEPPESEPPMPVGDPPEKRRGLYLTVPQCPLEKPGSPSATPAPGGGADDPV",
  "experiment": "Calcium flux FLIPR assay, HEK293 cells recombinantly expressing Cav3.2",
  "assay_type": "cell-based",
  "conditions": "Cav3.2-channel, Ca2+ entry stimulated by 10 mM CaCl2",
  "summary_of_the_method": "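Fluo-4-loaded HEK293 cells stably expressing Cav3.2, seeded overnight at 37 °C; compounds diluted in TEAC buffer (pH 7.2) and preincubated 3 min before Ca2+ entry triggered with CaCl2 at 10 mM final. Area under FLIPR fluorescence trace fitted sigmoidally; IC50 relative to vehicle signal.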",
  "data": [
    {"smiles": "N#Cc1ccc(Cn2ncc(NC(=O)Cc3ccc(C4(C(F)(F)F)CC4)cc3)n2)cc1", "note": "[Example 195, N-[2-(4-Cyano-benzyl)-2H-[1,2,3]triazol-4-yl]-2-[4-(1-trifluoromethyl-cyclopropyl)-phenyl]-acetamide]", "values": [
      {"measurement": "IC50", "value": 63, "unit": "nM"}
    ]},
    {"smiles": "CCOc1ccc(Cn2ncc(NC(=O)Cc3ccc4c(ccn4C)c3)n2)cc1", "note": "[Example 40, N-[2-(4-Ethoxy-benzyl)-2H-[1,2,3]triazol-4-yl]-2-(1-methyl-1H-indol-5-yl)-acetamide]", "values": [
      {"measurement": "IC50", "value": 35, "unit": "nM"}
    ]},
    {"smiles": "Cn1ncc2cc(CC(=O)Nc3cnn(Cc4ccc(C#N)c(F)c4)n3)ccc21", "note": "[Example 76, N-[2-(4-Cyano-3-fluoro-benzyl)-2H-[1,2,3]triazol-4-yl]-2-(1-methyl-1H-indazol-5-yl)-acetamide]", "values": [
      {"measurement": "IC50", "value": 120, "unit": "nM"}
    ]},
    {"smiles": "CC(C)c1ccc(CC(=O)Nc2cnn(Cc3ccc(F)cc3)n2)cc1", "note": "[Example 1, N-[2-(4-Fluoro-benzyl)-2H-[1,2,3]triazol4-yl]-2-(4-isopropyl-phenyl)-acetamide]", "values": [
      {"measurement": "IC50", "value": 21, "unit": "nM"}
    ]},
    {"smiles": "CC1(c2ccc(CC(=O)Nc3cnn(Cc4ccc(F)c(F)c4)n3)cc2)COC1", "note": "[Example 22, N-[2-(3,4-Difluoro-benzyl)-2H-[1,2,3]triazol-4-yl]-2-[4-(3-methyl-oxetan-3-yl)-phenyl]-acetamide]", "values": [
      {"measurement": "IC50", "value": 15, "unit": "nM"}
    ]},
    {"smiles": "CC(C)(C)c1ccc(CC(=O)Nc2cnn(Cc3ccc(C#N)c(F)c3)n2)cc1", "note": "[Example 73, 2-(4-tert-Butyl-phenyl)-N-[2-(4-cyano-3-fluoro-benzyl)-2H-[1,2,3]triazol-4-yl]-acetamide]", "values": [
      {"measurement": "IC50", "value": 37, "unit": "nM"}
    ]},
    {"smiles": "CN1C(=O)C(C)(C)c2cc(CC(=O)Nc3cnn(Cc4ccc(F)c(F)c4)n3)ccc21", "note": "[Example 19, N-[2-(3,4-Difluoro-benzyl)-2H-[1,2,3]triazol-4-yl]-2-(1,3,3-trimethyl-2-oxo-2,3-dihydro-1H-indol-5-yl)-acetamide]", "values": [
      {"measurement": "IC50", "value": 9.7, "unit": "nM"}
    ]},
    {"smiles": "CC1(c2ccc(CC(=O)Nc3cnn(Cc4ccc(C#N)c(F)c4)n3)cc2)COC1", "note": "[Example 72, N-[2-(4-Cyano-3-fluoro-benzyl)-2H-[1,2,3]triazol-4-yl]-2-[4-(3-methyl-oxetan-3-yl)-phenyl]-acetamide]", "values": [
      {"measurement": "IC50", "value": 74, "unit": "nM"}
    ]},
    {"smiles": "N#Cc1ccc(Cn2ncc(NC(=O)Cc3ccc(OC4CC(F)(F)C4)cc3)n2)nc1", "note": "[Example 246, N-[2-(5-Cyano-pyridin-2-ylmethyl)-2H-[1,2,3]triazol-4-yl]-2-[4-(3,3-difluoro-cyclobutoxy)-phenyl]-acetamide]", "values": [
      {"measurement": "IC50", "value": 680, "unit": "nM"}
    ]},
    {"smiles": "CC(C)c1ccc(CC(=O)Nc2cnn(Cc3ccc(F)c(C#N)c3)n2)cc1", "note": "[Example 174, N-[2-(3-Cyano-4-fluoro-benzyl)-2H-[1,2,3]triazol-4-yl]-2-(4-isopropyl-phenyl)-acetamide]", "values": [
      {"measurement": "IC50", "value": 28, "unit": "nM"}
    ]},
    {"smiles": "Cc1ccc(Cn2ncc(NC(=O)Cc3ccc(C(C)C)cc3)n2)cc1C#N", "note": "[Example 216, N-[2-(3-Cyano-4-methyl-benzyl)-2H-[1,2,3]triazol-4-yl]-2-(4-isopropyl-phenyl)-acetamide]", "values": [
      {"measurement": "IC50", "value": 74, "unit": "nM"}
    ]},
    {"smiles": "Cc1cc(Cn2ncc(NC(=O)Cc3ccc4cnn(C)c4c3)n2)ccc1C#N", "note": "[Example 163, N-[2-(4-Cyano-3-methyl-benzyl)-2H-[1,2,3]triazol-4-yl]-2-(1-methyl-1H-indazol-6-yl)-acetamide]", "values": [
      {"measurement": "IC50", "value": 330, "unit": "nM"}
    ]},
    {"smiles": "Cn1ncc2cc(CC(=O)Nc3cnn(Cc4ccc(F)c(C#N)c4)n3)ccc21", "note": "[Example 173, N-[2-(3-Cyano-4-fluoro-benzyl)-2H-[1,2,3]triazol-4-yl]-2-(1-methyl-1H-indazol-5-yl)-acetamide]", "values": [
      {"measurement": "IC50", "value": 150, "unit": "nM"}
    ]},
    {"smiles": "CC(C)(C)c1ccc(CC(=O)Nc2cnn(Cc3ccc(OC(F)F)c(F)c3)n2)cc1", "note": "[Example 178, 2-(4-tert-Butyl-phenyl)-N-[2-(4-difluoromethoxy-3-fluoro-benzyl)-2H-[1,2,3]triazol-4-yl]-acetamide]", "values": [
      {"measurement": "IC50", "value": 49, "unit": "nM"}
    ]},
    {"smiles": "COc1cc(Cn2ncc(NC(=O)Cc3ccc(C4(F)COC4)cc3)n2)cc(F)c1F", "note": "[Example 224, N-[2-(3,4-Difluoro-5-methoxy-benzyl)-2H-[1,2,3]triazol-4-yl]-2-[4-(3-fluoro-oxetan-3-yl)-phenyl]-acetamide]", "values": [
      {"measurement": "IC50", "value": 190, "unit": "nM"}
    ]},
    {"smiles": "COc1cc(Cn2ncc(NC(=O)Cc3ccc(N4CCC(F)(F)C4)nc3)n2)ccc1F", "note": "[Example 115, 2-[6-(3,3-Difluoro-pyrrolidin-1-yl)-pyridin-3-yl]-N-[2-(4-fluoro-3-methoxy-benzyl)-2H-[1,2,3]triazol-4-yl]-acetamide]", "values": [
      {"measurement": "IC50", "value": 45, "unit": "nM"}
    ]},
    {"smiles": "CC(C)c1ccc(CC(=O)Nc2cnn(Cc3ccc(C#N)c(F)c3)n2)cc1", "note": "[Example 74, N-[2-(4-Cyano-3-fluoro-benzyl)-2H-[1,2,3]triazol-4-yl]-2-(4-isopropyl-phenyl)-acetamide]", "values": [
      {"measurement": "IC50", "value": 45, "unit": "nM"}
    ]},
    {"smiles": "O=C(Cc1ccc2cc[nH]c2c1)Nc1cnn(Cc2ccc(F)c(F)c2)n1", "note": "[Example 8, N-[2-(3,4-Difluoro-benzyl)-2H-[1,2,3]triazol-4-yl]-2-(1H-indol-6-yl)-acetamide]", "values": [
      {"measurement": "IC50", "value": 37, "unit": "nM"}
    ]},
    {"smiles": "COc1c(F)cc(Cn2ncc(NC(=O)Cc3ccc(C(C)(C)C)cc3)n2)cc1F", "note": "[Example 79, 2-(4-tert-Butyl-phenyl)-N-[2-(3,5-difluoro-4-methoxy-benzyl)-2H-[1,2,3]triazol-4-yl]-acetamide]", "values": [
      {"measurement": "IC50", "value": 46, "unit": "nM"}
    ]},
    {"smiles": "COc1cc(Cn2ncc(NC(=O)Cc3ccc(C4(F)COC4)cc3)n2)ccc1F", "note": "[Example 116, N-[2-(4-Fluoro-3-methoxy-benzyl)-2H-[1,2,3]triazol-4-yl]-2-[4-(3-fluoro-oxetan-3-yl)-phenyl]-acetamide]", "values": [
      {"measurement": "IC50", "value": 140, "unit": "nM"}
    ]},
    {"smiles": "CC(C)c1ccc(CC(=O)Nc2cnn(Cc3ccc(OC(F)F)c(F)c3)n2)cc1", "note": "[Example 180, N-[2-(4-Difluoromethoxy-3-fluoro-benzyl)-2H-[1,2,3]triazol-4-yl]-2-(4-isopropyl-phenyl)-acetamide]", "values": [
      {"measurement": "IC50", "value": 43, "unit": "nM"}
    ]},
    {"smiles": "COc1cc(Cn2ncc(NC(=O)Cc3ccc(OCC4(F)COC4)cc3)n2)cc(F)c1F", "note": "[Example 229, N-[2-(3,4-Difluoro-5-methoxy-benzyl)-2H-[1,2,3]triazol-4-yl]-2-[4-(3-fluoro-oxetan-3-ylmethoxy)-phenyl]-acetamide]", "values": [
      {"measurement": "IC50", "value": 130, "unit": "nM"}
    ]},
    {"smiles": "COc1cc(Cn2ncc(NC(=O)Cc3ccc(N4CCCC4)nc3)n2)cc(F)c1F", "note": "[Example 221, N-[2-(3,4-Difluoro-5-methoxy-benzyl)-2H-[1,2,3]triazol-4-yl]-2-(6-pyrrolidin-1-yl-pyridin-3-yl)-acetamide]", "values": [
      {"measurement": "IC50", "value": 160, "unit": "nM"}
    ]},
    {"smiles": "COc1c(F)cc(Cn2ncc(NC(=O)Cc3ccc(C4(OC)COC4)cc3)n2)cc1F", "note": "[Example 143, N-[2-(3,5-Difluoro-4-methoxy-benzyl)-2H-[1,2,3]triazol-4-yl]-2-[4-(3-methoxy-oxetan-3-yl)-phenyl]-acetamide]", "values": [
      {"measurement": "IC50", "value": 76, "unit": "nM"}
    ]},
    {"smiles": "O=C(Cc1ccc(N2CCC(F)(F)C2)nc1)Nc1cnn(Cc2ccc(F)cc2)n1", "note": "[Example 94, 2-[6-(3,3-Difluoro-pyrrolidin-1-yl)-pyridin-3-yl]-N-[2-(4-fluoro-benzyl)-2H-[1,2,3]triazol-4-yl]-acetamide]", "values": [
      {"measurement": "IC50", "value": 10, "unit": "nM"}
    ]},
    {"smiles": "COc1ccc(Cn2ncc(NC(=O)Cc3ccc(C(C)C)cc3)n2)cc1C#N", "note": "[Example 205, N-[2-(3-Cyano-4-methoxy-benzyl)-2H-[1,2,3]triazol-4-yl]-2-(4-isopropyl-phenyl)-acetamide]", "values": [
      {"measurement": "IC50", "value": 160, "unit": "nM"}
    ]},
    {"smiles": "COc1c(F)cc(Cn2ncc(NC(=O)Cc3ccc(OCC4COC4)cc3)n2)cc1F", "note": "[Example 141, N-[2-(3,5-Difluoro-4-methoxy-benzyl)-2H-[1,2,3]triazol-4-yl]-2-[4-(oxetan-3-ylmethoxy)-phenyl]-acetamide]", "values": [
      {"measurement": "IC50", "value": 86, "unit": "nM"}
    ]},
    {"smiles": "Cn1ncc2ccc(CC(=O)Nc3cnn(Cc4ccc(C#N)cc4)n3)cc21", "note": "[Example 101, N-[2-(4-Cyano-benzyl)-2H-[1,2,3]triazol-4-yl]-2-(1-methyl-1H-indazol-6-yl)-acetamide]", "values": [
      {"measurement": "IC50", "value": 480, "unit": "nM"}
    ]},
    {"smiles": "CC1(c2ccc(CC(=O)Nc3cnn(Cc4ccc(OC(F)(F)F)cc4)n3)cc2)COC1", "note": "[Example 93, 2-[4-(3-Methyl-oxetan-3-yl)-phenyl]-N-[2-(4-trifluoromethoxy-benzyl)-2H-[1,2,3]triazol-4-yl]-acetamide]", "values": [
      {"measurement": "IC50", "value": 15, "unit": "nM"}
    ]},
    {"smiles": "O=C(Cc1ccc(C2COC2)cc1)Nc1cnn(Cc2ccc(F)c(F)c2)n1", "note": "[Example 23, N-[2-(3,4-Difluoro-benzyl)-2H-[1,2,3]triazol-4-yl]-2-(4-oxetan-3-yl-phenyl)-acetamide]", "values": [
      {"measurement": "IC50", "value": 46, "unit": "nM"}
    ]},
    {"smiles": "COc1cc(Cn2ncc(NC(=O)Cc3ccc(OC4CC(F)(F)C4)cc3)n2)ccc1F", "note": "[Example 114]", "values": [
      {"measurement": "IC50", "value": 73, "unit": "nM"}
    ]},
    {"smiles": "CCOc1ccc(Cn2ncc(NC(=O)Cc3ccc(C(C)C)cc3)n2)cc1", "note": "[Example 44, N-[2-(4-Ethoxy-benzyl)-2H-[1,2,3]triazol-4-yl]-2-(4-isopropyl-phenyl)-acetamide]", "values": [
      {"measurement": "IC50", "value": 40, "unit": "nM"}
    ]},
    {"smiles": "CN(C)c1ccc(CC(=O)Nc2cnn(Cc3ccc(F)cc3)n2)cc1", "note": "[Example 2, 2-(4-Dimethylamino-phenyl)-N-[2-(4-fluoro-benzyl)-2H-[1,2,3]triazol-4-yl]-acetamide]", "values": [
      {"measurement": "IC50", "value": 17, "unit": "nM"}
    ]},
    {"smiles": "Cn1ncc2cc(CC(=O)Nc3cnn(Cc4ccc(OC(F)(F)F)cc4)n3)ccc21", "note": "[Example 92, 2-(1-Methyl-1H-indazol-5-yl)-N-[2-(4-trifluoromethoxy-benzyl)-2H-[1,2,3]triazol-4-yl]-acetamide]", "values": [
      {"measurement": "IC50", "value": 9.9, "unit": "nM"}
    ]},
    {"smiles": "COc1ccc(Cn2ncc(NC(=O)Cc3ccc(C(C)C)cc3)n2)cc1OC", "note": "[Example 50, N-[2-(3,4-Dimethoxy-benzyl)-2H-[1,2,3]triazol-4-yl]-2-(4-isopropyl-phenyl)-acetamide]", "values": [
      {"measurement": "IC50", "value": 160, "unit": "nM"}
    ]},
    {"smiles": "Cn1ncc2ccc(CC(=O)Nc3cnn(Cc4ccc(C#N)c(F)c4)n3)cc21", "note": "[Example 132, N-[2-(4-Cyano-3-fluoro-benzyl)-2H-[1,2,3]triazol-4-yl]-2-(1-methyl-1H-indazol-6-yl)-acetamide]", "values": [
      {"measurement": "IC50", "value": 180, "unit": "nM"}
    ]},
    {"smiles": "CCn1ncc2cc(CC(=O)Nc3cnn(Cc4cc(F)c(F)c(OC)c4)n3)ccc21", "note": "[Example 220, N-[2-(3,4-Difluoro-5-methoxy-benzyl)-2H-[1,2,3]triazol-4-yl]-2-(1-ethyl-1H-indazol-5-yl)-acetamide]", "values": [
      {"measurement": "IC50", "value": 190, "unit": "nM"}
    ]},
    {"smiles": "Cc1cn(C)c2ccc(CC(=O)Nc3cnn(Cc4ccc(C#N)cc4)n3)cc12", "note": "[Example 100, N-[2-(4-Cyano-benzyl)-2H-[1,2,3]triazol4-yl]-2-(1,3-dimethyl-1H-indol-5-yl)-acetamide]", "values": [
      {"measurement": "IC50", "value": 22, "unit": "nM"}
    ]}
  ]
}
